From US20200038414A1, “METHODS OF TREATING CONSTIPATION USING AMINOSTEROL COMPOSITIONS” (Enterin, Inc., priority 2018, published 2020)
Several values for one entry are separate records, joined by “and”; a condition that tells them apart may be missing. Identical values can stand only once.

Tests used:
[1] = test system: C. elegans model of PD; details: cited from earlier work
[2] = test system: PD patients with constipation; assay: Phase 2 trial Stage 1: prokinetic response to single escalating oral doses; format: in vivo, human; details: Stage 1, single oral dose
Description: (§1) Tolerability limits included diarrhea or vomiting.

[3] = test system: PD patients with constipation; assay: Phase 2 trial Stage 1: adverse events; format: in vivo, human; details: Stage 1, dosed 10
Description: as §1

[4] = test system: PD patients with constipation; assay: Phase 2 trial Stage 2: adverse events; format: in vivo, human
Procedure: (§2) In Stage 2, 34 patients were evaluated.

[5] = test system: PD patients with constipation; assay: Phase 2 trial Stage 2: bowel function under daily oral dosing (escalation, fixed dose, randomization, wash-out); format: in vivo, human; details: for CSBM/week: randomized cohort
Procedure: as §2
The primary efficacy outcome variable was whether or not a subject was a “success” or “failure”. This is an endpoint based on subject diary entries for the “fixed dose” period prior to the endpoint assessment defined as average complete stool frequency increase by 1 or more over baseline, or 3 or more complete spontaneous stools/week. The subject was deemed a “success” if s/he met one or more of the criteria listed above, otherwise the subject was deemed a “failure”. The primary analysis was based on all subjects with a baseline assessment and an assessment at the end of the “fixed-dose” period and was a comparison of the proportion of successes with 0.10 (the null hypothesis corresponding to no treatment effect).

[6] = biological target: αS (Homo sapiens, UniProt P37840); details: in vitro; cited from earlier work
[7] = test system: PD patients with constipation; assay: Phase 2 trial, both Stages: adverse events in all dosed patients (n = 44); format: in vivo, human
Procedure: Adverse events were coded using the current version of MedDRA. Severity of AEs were assessed by investigators according to CTCAE (v4.03): Grade 1 is labeled as Mild, Grade 2 as Moderate, and Grade 3 and above as Severe. […] The number (percentage) of subjects who experienced an AE during escalation and fixed dosing periods were summarized by dose level and overall for each stage. The denominator for calculating the percentages were based on the number of subjects ever exposed to each dose and overall.

[8] = test system: PD patients with constipation; assay: Phase 2 trial Stage 2: CNS symptoms (UPDRS, MMSE, PDHQ, BDI-II); format: in vivo, human; details: for PDHQ (Mean): baseline 1.3 (2.99); for BDI-II (Mean): baseline 10.9 (7.12)
Procedure: (9) Unified Parkinson's Disease Rating Scale (UPDRS), which consists of 42 items in four subscales (Part I=Non-Motor Aspects of Experiences of Daily Living (nM-EDL) (1.1 cognitive impairment, 1.2 hallucinations and psychosis, 1.3 depressed mood; Part II=Motor Aspects of Experiences of Daily Living (M-EDL), Part III=Motor Examination, and Part IV=Motor Complications;
Assessments were made at baseline and at the end of the fixed dose and washout periods. Circadian system status was evaluated by continuously monitoring wrist skin temperature (Thermochron iButton DS1921H; Maxim, Dallas) following published procedures (Sarabia et al. 2008).
An exploratory analysis was done with respect to the sleep data, the body temperature data, mood, fatigue, hallucinations, cognition and other motor and non-motor symptoms of PD. Continuous measurements within a subject were compared with a paired t-test and continuous measurements between subject groups were compared with a two-group t-test. Categorical data were compared with a chi-squared test or a Fisher's exact test if the expected cell counts are too small for a chi-squared test.
CNS symptoms were evaluated at baseline and at the end of the fixed dose period and the wash-out period (Table 11). Total UPDRS score was 64.4 at baseline, 60.6 at the end of the fixed dose period and 55.7 at the end of the wash-out period (p=0.002); similarly, the motor component of the UPDRS improved from 35.3 at baseline to 33.3 at the end of fixed dose to 30.2 at the end of wash-out (p=0.006). MMSE improved from 28.4 at baseline to 28.7 during treatment and to 29.3 during wash-out (p=0.0006). […] PDHQ improved from 1.3 at baseline to […] during treatment and 0.9 during wash-out (p=0.03). Hallucinations were reported by 5 patients at baseline and delusions in 1 patient. […] Unlike stool-related indices, the improvement in many CNS symptoms persisted during wash-out.

[9] = test system: PD population with constipation; details: short term placebo controlled trial in PD; loose stools/diarrhea in place of constipation; cited from earlier work
[10] = following systemic administration, in mice; into the duodenum through the biliary tract; cited from earlier work
[11] = test system: mouse models of PD; details: several mouse models of PD; cited from earlier work
[12] = Stage 2, dosed 34, unrelated to ENT-01

Compound: CC(C)[C@@H](CC[C@@H](C)[C@H]1CC[C@H]2[C@@H]3[C@H](O)C[C@H]4C[C@@H](NCCCNCCCCN)CC[C@]4(C)[C@H]3CC[C@]12C)OS(=O)(=O)O (single isomer, unassigned) [squalamine (ENT-01)]
- effect on formation of aggregates of αS ([1]; C. elegans model of PD in vivo): inhibit the formation of aggregates of αS
- cumulative prokinetic response rate (patients with a CSBM within 24 hours of dosing) ([2]; 25 mg): 25%
- cumulative prokinetic response rate (patients with a CSBM within 24 hours of dosing) ([2]; 200 mg (maximum)): 80%
- adverse event: Abdominal pain, Mild [3]: 2 (20) n, %
- adverse event: Abdominal pain, Moderate [3]: 3 (30) n, %
- adverse event: Diarrhea, Mild [3]: 1 (10) n, %
- adverse event: Diarrhea, Moderate [3]: 3 (30) n, %
- adverse event: Diarrhea, Severe [3]: 0 n, %
- adverse event: Difficulty falling asleep, Mild [3]: 0 n, %
- adverse event: Difficulty falling asleep, Moderate [3]: 0 n, %
- adverse event: Dizziness, Mild [3]: 0 n, %
- adverse event: Dizziness, Moderate [3]: 0 n, %
- adverse event: Eye infection, Mild [3]: 0 n, %
- adverse event: Eye infection, Moderate [3]: 0 n, %
- adverse event: Flatulence, Mild [3]: 2 (20) n, %
- adverse event: Flatulence, Moderate [3]: 0 n, %
- adverse event: Headache, Mild [3]: 1 (10) n, %
- adverse event: Headache, Moderate [3]: 0 n, %
- adverse event: Increased urinary frequency, Mild [3]: 0 n, %
- adverse event: Increased urinary frequency, Moderate [3]: 0 n, %
- adverse event: Nausea, Mild [3]: 4 (40) n, %
- adverse event: Nausea, Moderate [3]: 0 n, %
- adverse event: Skin lesions-rash, Mild [3]: 0 n, %
- adverse event: Skin lesions-rash, Moderate [3]: 0 n, %
- adverse event: Urinary retention, Mild [3]: 0 n, %
- adverse event: Urinary retention, Moderate [3]: 0 n, %
- adverse event: Urinary tract infection, Mild [3]: 0 n, %
- adverse event: Urinary tract infection, Moderate [3]: 0 n, %
- adverse event: Vomiting, Mild [3]: 1 (10) n, %
- adverse event: Vomiting, Moderate [3]: 0 n, %
- adverse event: Worsening acid reflux, Mild [3]: 0 n, %
- adverse event: Worsening acid reflux, Moderate [3]: 0 n, %
- adverse event: Worsening hemorrhoid, Mild [3]: 0 n, %
- adverse event: Worsening hemorrhoid, Moderate [3]: 0 n, %
- adverse event: Blood in urine, Mild ([3]; unrelated to ENT-01): 1 (10) n, %
- adverse event: Blood in urine, Moderate ([3]; unrelated to ENT-01): 0 n, %
- adverse event: Loss of appetite, Mild ([3]; unrelated to ENT-01): 1 (10) n, %
- adverse event: Loss of appetite, Moderate ([3]; unrelated to ENT-01): 0 n, %
- adverse event: Lower GI bleed, Severe ([3]; unrelated to ENT-01): 0 n, %
- patients with diarrhea ([4]; Stage 2, 15/34): 44%
- patients who withdrew during dosing because of diarrhea ([4]; Stage 2, 34 dosed): 2
- adverse event: Abdominal pain, Mild ([4]; Stage 2, dosed 34): 4 n
- adverse event: Abdominal pain, Moderate ([4]; Stage 2, dosed 34): 2 n
- adverse event: Diarrhea, Mild ([4]; Stage 2, dosed 34): 12 n
- adverse event: Diarrhea, Moderate ([4]; Stage 2, dosed 34): 2 n
- adverse event: Diarrhea, Severe ([4]; Stage 2, dosed 34): 1 n
- adverse event: Difficulty falling asleep, Mild ([4]; Stage 2, dosed 34): 1 n
- adverse event: Difficulty falling asleep, Moderate ([4]; Stage 2, dosed 34): 0 n
- adverse event: Dizziness, Mild ([4]; Stage 2, dosed 34): 7 n
- adverse event: Dizziness, Moderate ([4]; Stage 2, dosed 34): 1 n
- adverse event: Eye infection, Mild ([4]; Stage 2, dosed 34): 1 n
- adverse event: Eye infection, Moderate ([4]; Stage 2, dosed 34): 0 n
- adverse event: Flatulence, Mild ([4]; Stage 2, dosed 34): 1 n
- adverse event: Flatulence, Moderate ([4]; Stage 2, dosed 34): 0 n
- adverse event: Headache, Mild ([4]; Stage 2, dosed 34): 3 n
- adverse event: Headache, Moderate ([4]; Stage 2, dosed 34): 0 n
- adverse event: Increased urinary frequency, Mild ([4]; Stage 2, dosed 34): 2 n
- adverse event: Increased urinary frequency, Moderate ([4]; Stage 2, dosed 34): 0 n
- adverse event: Nausea, Mild ([4]; Stage 2, dosed 34): 18 n
- adverse event: Nausea, Moderate ([4]; Stage 2, dosed 34): 1 n
- adverse event: Skin lesions-rash, Mild ([4]; Stage 2, dosed 34): 3 n
- adverse event: Skin lesions-rash, Moderate ([4]; Stage 2, dosed 34): 0 n
- adverse event: Urinary retention, Mild ([4]; Stage 2, dosed 34): 1 n
- adverse event: Urinary retention, Moderate ([4]; Stage 2, dosed 34): 0 n
- adverse event: Urinary tract infection, Mild ([4]; Stage 2, dosed 34): 1 n
- adverse event: Urinary tract infection, Moderate ([4]; Stage 2, dosed 34): 2 n
- adverse event: Vomiting, Mild ([4]; Stage 2, dosed 34): 2 n
- adverse event: Vomiting, Moderate ([4]; Stage 2, dosed 34): 0 n
- adverse event: Worsening acid reflux, Mild ([4]; Stage 2, dosed 34): 4 n
- adverse event: Worsening acid reflux, Moderate ([4]; Stage 2, dosed 34): 0 n
- adverse event: Worsening hemorrhoid, Mild ([4]; Stage 2, dosed 34): 1 n
- adverse event: Worsening hemorrhoid, Moderate ([4]; Stage 2, dosed 34): 0 n
- adverse event: Lower GI bleed, Severe ([4]; Stage 2, dosed 34, colonic diverticulosis, polyp, patient on aspirin, Plavix and naproxen, unrelated to ENT-01): 1 n
- adverse event: Blood in urine, Mild [4, 12]: 0 n
- adverse event: Blood in urine, Moderate [4, 12]: 0 n
- adverse event: Loss of appetite, Mild [4, 12]: 0 n
- adverse event: Loss of appetite, Moderate [4, 12]: 0 n
- patients terminated prior to completion because of recurrent dizziness ([4]; Stage 2, two of 34 dosed): 5.8%
- CSBM, weekly average (mean, SD) ([5]; Stage 2, fixed dose, n = 34, baseline 1.2 (0.90), P 2.3 × 10^−8): 3.8 /week and 3.8 (2.40) /week
- Suppository use / rescue medication, weekly average (mean, SD) ([5]; Stage 2, fixed dose, n = 34, baseline 1.8 (1.92), P 1.33 × 10^−5): 0.3 /week and 0.3 (0.67) /week
- SBM, weekly average (mean, SD) ([5]; Stage 2, fixed dose, n = 34, baseline 2.6 (1.45), P 6.4 × 10^−6): 4.5 /week and 4.5 (2.21) /week
- Consistency (Mean, SD) ([5]; Stage 2, wash-out, Bristol stool scale, baseline 2.7 (1.20), P vs. baseline 0.85): 2.8 (1.39)
- CSBM (Mean, SD) ([5]; Stage 2, wash-out, baseline 1.2 (0.90), P wash-out vs. baseline 0.01): 1.8 (1.19) /week
- PAQ-SYM (Mean, SD) ([5]; Stage 2, wash-out, baseline 1.3 (0.45), P vs. baseline 0.11): 1.1 (0.60)
- PAQ-QOL (Mean, SD) ([5]; Stage 2, wash-out, baseline 1.4 (0.49), P vs. baseline 0.04): 1.2 (0.63)
- Rescue meds (Mean, SD) ([5]; Stage 2, wash-out, baseline 1.8 (1.92), P vs. baseline 0.13): 1.0 (1.40) /week
- SBM (Mean, SD) ([5]; Stage 2, wash-out, baseline 2.6 (1.45), P vs. baseline 0.16): 3.2 (1.80) /week
- Ease (Mean, SD) ([5]; Stage 2, wash-out, ease of evacuation scale, baseline 3.2 (0.73), P vs. baseline 0.78): 3.3 (0.81)
- improvement of SBM/week ([5]; fixed dose vs baseline (2.6 to 4.5)): 73%
- mean dose required for a prokinetic response ([5]; patients with baseline ≥1 CSBM/week, relation to baseline severity p=0.00055): 120 mg
- CSBM/week ([5]; Treatment arm (n = 6), fixed dose period, baseline 0.8): 3.2 CSBM/week
- CSBM/week ([5]; Treatment arm (n = 6), randomized period (4-6 days), baseline 0.8): 2.4 CSBM/week
- CSBM/week ([5]; Treatment arm (n = 6), washout, baseline 0.8): 0.9 CSBM/week
- CSBM/week ([5]; patients later given placebo (n = 9), fixed dose period on drug, baseline 1.6): 3.3 CSBM/week
- effect on formation of aggregates of αS [6]: inhibit the formation of aggregates of αS
- patients with worsening of hemorrhoids ([7]; 1/44): 2.2%
- patients with worsening of acid reflux ([7]; 2/44): 4.5%
- patients with flatulence ([7]; 3/44): 6.8%
- patients with vomiting ([7]; 3/44): 6.8%
- patients with dizziness ([7]; 8/44): 18%
- patients with abdominal pain ([7]; 11/44): 32%
- PDHQ (Mean) ([8]; Stage 2, fixed dose, n = 34, P 0.45): 1.8
- BDI-II (Mean) ([8]; Stage 2, fixed dose, n = 34, P 0.14): 9.9
- PDHQ (Mean) ([8]; Stage 2, wash-out, n = 34, P 0.03): 0.9
- BDI-II (Mean) ([8]; Stage 2, wash-out, n = 34, P 0.10): 8.7
- UPDRS Part 1 (NMS) (Mean) ([8]; Stage 2, wash-out, n = 34, baseline 11.6 (6.51), P 0.06): 9.5
- patients in whom hallucinations and delusions improved or disappeared ([8]; during treatment, hallucinations in 5 patients and delusions in 1 patient at baseline): 5 of 6

Compound: CCCCC(F)(F)[C@@]1(O)CC[C@H]2[C@@H](CC(=O)[C@@H]2CCCCCCC(=O)O)O1 [Lubiprostone]
- share of treated patients in whom effective [9]: about 50%

Compound: CC(C)[C@@H](CC[C@@H](C)[C@H]1CC[C@H]2[C@@H]3[C@H](O)C[C@H]4C[C@@H](NCCCNCCCCN)CC[C@]4(C)[C@H]3CC[C@]12C)OS(=O)(=O)O [squalamine]
- effect on muscle paralysis ([1]; C. elegans model): complete reversal of muscle paralysis
- clearance and excretion [10]: cleared by the liver and excreted as the intact molecule
- effect on gastrointestinal dysmotility [11]: reverse gastrointestinal dysmotility
